# Tests used:
# giant foxtail = assay: Test A pre-/postemergence herbicide test; format: in vivo, Setaria faberi
# Procedure, shortened: (§1)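 Sandy loam soil given preemergence directed spray; plants at 2 to 10 cm, one- to two-leaf stage, sprayed to runoff postemergence, compounds in non-phytotoxic solvent with surfactant. Injury rated visually versus untreated controls after about ten greenhouse days, 0 (no effect) to 100 (complete control); dash means not tested.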
# redroot pigweed = assay: Test A pre-/postemergence herbicide test; format: in vivo, Amaranthus retroflexus
# Procedure, shortened: as §1
# yellow nutsedge = assay: Test C pre-/postemergence herbicide test; format: in vivo, Cyperus esculentus
# Procedure, shortened: (§2)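 Preemergence: seeds planted and treated with compound in non-phytotoxic solvent with surfactant; postemergence: plants at 2 to 18 cm (1- to 4-leaf stage) sprayed likewise. Kept in greenhouse 12 to 14 days, then visually rated against controls, 0 (no effect) to 100 (complete control).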
# rice = assay: Test B pre-/postemergence herbicide test; format: in vivo, Oryza sativa; settings: preemergence
# Procedure, shortened: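 Response was scored visually 13 to 15 days after treatment against untreated greenhouse controls, 0 meaning no effect and 100 complete control. Formulations (solvent mixture plus surfactant) went onto soil after planting, onto foliage of 1- to 4-leaf plants, and onto 2-leaf plants in a flooded paddy set including rice and barnyardgrass.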
# woolly cupgrass = assay: Test C pre-/postemergence herbicide test; format: in vivo, Eriochloa villosa
# Procedure, shortened: as §2
# large crabgrass = assay: Test A pre-/postemergence herbicide test; format: in vivo, Digitaria sanguinalis
# Procedure, shortened: as §1
# lambsquarters = assay: Test C pre-/postemergence herbicide test; format: in vivo, Chenopodium album; settings: for Lambsquarters plant response rating: 500 g ai/ha
# Procedure, shortened: as §2
# johnsongrass = assay: Test C pre-/postemergence herbicide test; format: in vivo, Sorghum halepense
# Procedure, shortened: as §2
# barnyardgrass = assay: Test C flooded paddy test; format: in vivo, Echinochloa crus-galli
# Procedure, shortened: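 Scoring by eye, 12–14 days post-treatment, greenhouse-held plants vs. controls; 0 no effect, 100 complete control. Sprayed at 1–4 leaves (2–18 cm); paddy barnyardgrass at 2 leaves, flooded.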
# [1] = Postemergence, 500 g ai/ha, 0 to 100 scale, 0 no effect, 100 complete control
# [2] = Postemergence, 2000 g ai/ha, 0 to 100 scale, 0 no effect, 100 complete control
# [3] = Preemergence, 500 g ai/ha, visual rating, 0 to 100 scale (0 no effect, 100 complete control)
# [4] = Preemergence, 2000 g ai/ha, 0 to 100 scale, 0 no effect, 100 complete control
# [5] = Postemergence, 500 g ai/ha, scale 0 to 100
# [6] = Postemergence, 250 g ai/ha, scale 0 to 100, 0 no effect, 100 complete control
# [7] = postemergence, 125 g ai/ha, scale 0 to 100
# [8] = postemergence, 62 g ai/ha, scale 0 to 100
# [9] = 125 g ai/ha, 0 to 100 scale, 0 is no effect, 100 is complete control
# [10] = 125 g ai/ha, scale 0 (no effect) to 100 (complete control), visual, 12 to 14 days, preemergence
# [11] = 250 g ai/ha, scale 0 to 100 (0 no effect, 100 complete control), visual, 12 to 14 days, preemergence
# [12] = Preemergence, 500 g ai/ha, scale 0 to 100, 0 no effect, 100 complete control
# [13] = 62 g ai/ha, preemergence, scale 0 to 100
# [14] = 250 g ai/ha, scale 0-100, preemergence
# [15] = 500 g ai/ha, scale 0 to 100 (0 no effect, 100 complete control), visual, 12 to 14 days, preemergence
smiles,measurement,setting,value
C=CCOC(=O)c1cccc(NC(=O)c2cc(C(C)(C)C)nn2CC)c1 [Compound 85],"Foxtail, Giant plant response rating",giant foxtail; [1],20
same,"Plant response rating, Foxtail, Giant",giant foxtail; [2],30
same,"Foxtail, Giant plant response rating",giant foxtail; [3],0
same,"Foxtail, Giant plant response rating",giant foxtail; [4],0
same,Pigweed plant response rating,redroot pigweed; [1],75
same,"Plant response rating, Pigweed",redroot pigweed; [2],70
same,Pigweed plant response rating,redroot pigweed; [3],0
same,Pigweed plant response rating,redroot pigweed; [4],5
same,"Nutsedge, Yellow plant response rating",yellow nutsedge; [5],40
same,"Plant response rating, Nutsedge, Yellow",yellow nutsedge; [6],20
same,"Plant response rating, Nutsedge, Yellow",yellow nutsedge; [7],20
same,"Plant response rating, Nutsedge, Yellow",yellow nutsedge; [8],10
same,"Plant response rating, Rice",rice; [9],0
same,"Cupgrass, Woolly plant response rating",woolly cupgrass; [5],85
same,"Plant response rating, Cupgrass, Woolly",woolly cupgrass; [6],80
same,"Plant response rating, Cupgrass, Woolly",woolly cupgrass; [7],50
same,"Plant response rating, Cupgrass, Woolly",woolly cupgrass; [8],40
same,"Crabgrass, Large plant response rating",large crabgrass; [1],20
same,"Plant response rating, Crabgrass, Large",large crabgrass; [2],30
same,"Crabgrass, Large plant response rating",large crabgrass; [3],0
same,"Crabgrass, Large plant response rating",large crabgrass; [4],5
same,Lambsquarters plant response rating,"lambsquarters; Postemergence, scale 0 to 100",100
same,"Plant response rating, Lambsquarters",lambsquarters; [6],50
same,"Plant response rating, Lambsquarters",lambsquarters; [7],30
same,"Plant response rating, Lambsquarters",lambsquarters; [8],10
same,Johnsongrass plant response rating,johnsongrass; [5],80
same,"Plant response rating, Johnsongrass",johnsongrass; [6],20
same,"Plant response rating, Johnsongrass",johnsongrass; [7],10
same,"Plant response rating, Johnsongrass",johnsongrass; [8],10
CCCn1nc(C(C)(C)C)cc1C(=O)Nc1cccc(C(=O)NCC)c1 [Compound 57],"Plant response rating (0 = no effect, 100 = complete control), Nutsedge, Yellow","yellow nutsedge; 62 g ai/ha, preemergence",0
same,"Plant response rating, Nutsedge, Yellow",yellow nutsedge; [10],0
same,"Plant response rating, Nutsedge, Yellow",yellow nutsedge; [11],0
same,"Nutsedge, Yellow plant response rating",yellow nutsedge; [12],20
same,"Plant response rating, Rice",rice; [9],30
same,"Plant response rating (0 = no effect, 100 = complete control), Cupgrass, Woolly","woolly cupgrass; 62 g ai/ha, preemergence",0
same,"Plant response rating, Cupgrass, Woolly",woolly cupgrass; [10],0
same,"Plant response rating, Cupgrass, Woolly",woolly cupgrass; [11],25
same,"Cupgrass, Woolly plant response rating",woolly cupgrass; [12],70
same,"Plant response rating (0 = no effect, 100 = complete control), Lambsquarters","lambsquarters; 62 g ai/ha, preemergence",100
same,"Plant response rating, Lambsquarters",lambsquarters; [10],100
same,"Plant response rating, Lambsquarters",lambsquarters; [11],100
same,Lambsquarters plant response rating,"lambsquarters; Preemergence, scale 0 to 100, 0 no effect, 100 complete control",100
same,"Plant response rating (0 = no effect, 100 = complete control), Johnsongrass","johnsongrass; 62 g ai/ha, preemergence",20
same,"Plant response rating, Johnsongrass",johnsongrass; [10],65
same,"Plant response rating, Johnsongrass",johnsongrass; [11],80
same,Johnsongrass plant response rating,johnsongrass; [12],85
CCn1nc(C(C)(C)C)cc1C(=O)Nc1cc(C(=O)N2CCCC2)ccc1F [Compound 242],"Plant response rating, Nutsedge, Yellow",yellow nutsedge; [13],0
same,"Plant response rating, Nutsedge, Yellow",yellow nutsedge; [10],0
same,"Plant response rating, Nutsedge, Yellow",yellow nutsedge; [14],15
same,"Plant response rating, Nutsedge, Yellow",yellow nutsedge; [15],25
same,Barnyardgrass plant response rating,"barnyardgrass; 62 g ai/ha, scale 0 to 100 (0 no effect, 100 complete control)",15
same,Barnyardgrass plant response rating,"barnyardgrass; 125 g ai/ha, scale 0 to 100 (0 no effect, 100 complete control)",75
same,Barnyardgrass plant response rating,"barnyardgrass; 250 g ai/ha, scale of 0 to 100, 0 is no effect, 100 is complete control",90
same,"Plant response rating, Barnyardgrass","barnyardgrass; 500 g ai/ha, visual rating after 12 to 14 days, scale 0 to 100 (0 no effect, 100 complete control)",95
same,Rice plant response rating (0 to 100 scale),"rice; 125 g ai/ha, 0 = no effect, 100 = complete control",50
same,"Plant response rating, Rice","rice; 500 g ai/ha, visual rating, 0 = no effect, 100 = complete control",80
same,"Plant response rating, Cupgrass, Woolly",woolly cupgrass; [13],75
same,"Plant response rating, Cupgrass, Woolly",woolly cupgrass; [10],80
same,"Plant response rating, Cupgrass, Woolly",woolly cupgrass; [14],95
same,"Plant response rating, Cupgrass, Woolly",woolly cupgrass; [15],100
same,"Plant response rating, Johnsongrass",johnsongrass; [13],65
same,"Plant response rating, Johnsongrass",johnsongrass; [10],95
same,"Plant response rating, Johnsongrass",johnsongrass; [14],100
same,"Plant response rating, Johnsongrass",johnsongrass; [15],100

# Source: patent publication US20060069132A1, “Azolecarboxamide herbicides” (priority 2004, published 2006)
